Reference: patent US7608587B2, “Exendin 4 polypeptide fragment” (Changzhou Pharmaceutical Factory, priority 2005, dated 2009)

Tests used:
Goto Kokizaki II rats = assay: insulin secretion stimulation in Goto Kokizaki II rats (ELISA); type: in vivo, rat; settings: 5 μg subcutaneous, 0-45 minutes
Description: Six-month-old (470 g body weight) Goto Kokizaki II rats were taken for the operative procedure. The test animals were administrated by subcutaneous injection of Exendin 4 polypeptides in a dose of 5 μg, while the animals of control group only achieved physiological saline solution. 20 μl of blood samples were obtained from fasted animals at 0, 3, 5, 10, 15, 30 and 45 minutes time points respectively after administration of the test substance.

diabetic animal models = assay: hypoglycemic activity across the diabetic animal models of examples 3-7 (overall statement); type: in vivo; settings: assays of examples 3, 4, 5, 6, 7
From the text: The effect of hypoglycemic levels of the polypeptide in the present invention is validated with the routine methods in the art, such as the experiments of cell biology, the animal experiments, etc. In embodiments of the present invention, in order to overcome the limitations of the experiments in vitro, preferably employed diabetic animal models to assay the effect of hypoglycemic levels, such as db/db II diabetic mice, Goto-Kokizaki (GK) II type rat, diabetic KK mice, alloxan induced diabetic mice. These animal experiments indicate the Exendin 4 polypeptide fragment represented by formula (I) in the present invention, has a continuous effect of sustaining hypoglycemic activity in vivo and can be used for the diabetes treatment. KK type II diabetic mice (purchased from Shanghai Laboratory Animal Center, Chinese Academy of Sciences, China) with 50 g body weight are subjected to fasting for 2 hours, and are divided into four groups. Two groups are injected with 2 μg Exendin 4, the other two groups are injected with 2 μg Exendin 4 polypeptide fragment presented in the invention. Twenty microliter blood samples are obtained from fasted animals at 0, 0.5, 1, 2, 3, 4, 5 and 6 h time points respectively after administration of the test substance. The sustained hypoglycemic activity is analyzed by using the blood sugar assay kit (purchased from Shanghai Institute of Biological Products, China). The corresponding results of the Exendin 4 polypeptide fragments having the sequences of SEQ ID NO. 1, SEQ ID NO. 2, SEQ ID NO. 3, SEQ ID NO. 4, SEQ ID NO. 5, SEQ ID NO. 6, SEQ ID NO. 7, SEQ ID NO. 8, SEQ ID NO. 9, SEQ ID NO. 10, SEQ ID NO. 11 and SEQ ID NO. 12 are shown in FIG. 7, FIG. 2, FIG. 12, FIG. 17, FIG. 22, FIG. 27, FIG. 32, FIG. 37, FIG. 42, FIG. 47, FIG. 52 and FIG. 57 respectively. The db/db II diabetic mice (purchased from Shanghai Laboratory Animal Center, Chinese Academy of Sciences and Yangzhou University, China) with 50 g body weight are subjected to fasting for 2 hours, the test animals were administrated by subcutaneous injection of Exendin 4 polypeptide fragment in a dose of 2 μg. 20 μl blood samples were obtained from fasted animals at 0, 0.5, 1 and 2 hours time points respectively after administration of the test substance. The sustained hypoglycemic activity is analyzed by using the blood sugar assay kit (purchased from Shanghai Institute of Biological Products, China). The corresponding results of the Exendin 4 polypeptide fragments having the sequences of SEQ ID NO. 1, SEQ ID NO. 2, SEQ ID NO. 3, SEQ ID NO. 4, SEQ ID NO. 5, SEQ ID NO. 6, SEQ ID NO. 7, SEQ ID NO. 8, SEQ ID NO. 9, SEQ ID NO. 10, SEQ ID NO. 11 and SEQ ID NO. 12 are shown in FIG. 8, FIG. 3, FIG. 13, FIG. 18, FIG. 23, FIG. 28, FIG. 33, FIG. 38, FIG. 43, FIG. 48, FIG. 53, FIG. 58 respectively. Five-month-old (body weight 470 g) Goto Kokizaki diabetic rat (purchased from Shanghai Laboratory Animal Center, Chinese Academy of Sciences, China) are taken for the operative procedure. After subjecting to fasting for 2 hours, the test animals were administrated by intraperitoneal injection of 20% glucose in a dose of 1 ml and by subcutaneous injection of Exendin 4 polypeptide fragment in a dose of 5 μg. The control group received only glucose. Twenty microliter blood samples were obtained from fasted animals at 0, 0.5, 1 and 2 hours time points respectively after administration of the test substance. The sustained hypoglycemic activity is determined by using the blood sugar assay kit (purchased from Shanghai Institute of Biological Products, China). The curve 1 indicates the control group. The curve 2 indicates the administration group. Eight-week-old (20 g body weight) mice are taken for the operative procedure. Experimental diabetes in mice was induced by (16 mg/ml) 0.1 ml alloxan by tail vein injection. Animals are divided into five groups. 48 hours later, 2 μg Exendin 4 polypeptide fragment was injected. […]

In the case of “SEQ ID NO. 67: solid phase Exendin 4 polypeptide variant of example 8; sequence not printed in the text (HGEGTFTSNLSKQIEEEAVKLFIEWLKNGP; Exendin 4 polypeptide fragment)”, the “insulin secretion of the test group” value (Goto Kokizaki II rats) was “recovered” and the “hypoglycemic activity (in words)” value (diabetic animal models) was “significant hypoglycemic activity”.

For “SEQ ID NO. 70: solid phase Exendin 4 polypeptide variant of example 8; sequence not printed in the text (HGEGTYTSNLSKQLEEEAVKLFIEWLKNGGP; Exendin 4 polypeptide fragment)”, the “insulin secretion of the test group” value (Goto Kokizaki II rats) was “recovered” and the “hypoglycemic activity (in words)” value (diabetic animal models) was “significant hypoglycemic activity”.

“SEQ ID NO. 68: solid phase Exendin 4 polypeptide variant of example 8; sequence not printed in the text (HGEGTYTSNLSKQIEEEAVKLFIEWLKNGP; Exendin 4 polypeptide fragment)” was tested, and the “insulin secretion of the test group” value (Goto Kokizaki II rats) was “recovered” and the “hypoglycemic activity (in words)” value (diabetic animal models) was “significant hypoglycemic activity”.

For “SEQ ID NO. 65: solid phase Exendin 4 polypeptide variant of example 8; sequence not printed in the text (HGEGTFTSNLSKQIEEEAVKLFIEWLKNGGP; Exendin 4 polypeptide fragment)”, the “insulin secretion of the test group” value (Goto Kokizaki II rats) was “recovered” and the “hypoglycemic activity (in words)” value (diabetic animal models) was “significant hypoglycemic activity”.

With “SEQ ID NO. 69: solid phase Exendin 4 polypeptide variant of example 8; sequence not printed in the text (HGEGTFTSNLSKQLEEEAVKLFIEWLKNGGP; Exendin 4 polypeptide fragment)” the “insulin secretion of the test group” value (Goto Kokizaki II rats) was “recovered” and the “hypoglycemic activity (in words)” value (diabetic animal models) was “significant hypoglycemic activity”.

For “SEQ ID NO. 72: solid phase Exendin 4 polypeptide variant of example 8; sequence not printed in the text (HGEGTYTSNLSKQLEEEAVKLFIEWLKNGP; Exendin 4 polypeptide fragment)”, the “insulin secretion of the test group” value (Goto Kokizaki II rats) was “recovered” and the “hypoglycemic activity (in words)” value (diabetic animal models) was “significant hypoglycemic activity”.

In the case of “SEQ ID NO. 71: solid phase Exendin 4 polypeptide variant of example 8; sequence not printed in the text (HGEGTFTSNLSKQLEEEAVKLFIEWLKNGP; Exendin 4 polypeptide fragment)”, the “insulin secretion of the test group” value (Goto Kokizaki II rats) was “recovered” and the “hypoglycemic activity (in words)” value (diabetic animal models) was “significant hypoglycemic activity”.

“SEQ ID NO. 64: solid phase Exendin 4 polypeptide variant of example 8; sequence not printed in the text (HGEGTYTSNLSKQMEEEAVKLFIEWLKNGP; Exendin 4 polypeptide fragment)” was tested, and the “insulin secretion of the test group” value (Goto Kokizaki II rats) was “recovered” and the “hypoglycemic activity (in words)” value (diabetic animal models) was “significant hypoglycemic activity”.

“SEQ ID NO. 62: solid phase Exendin 4 polypeptide variant of example 8; sequence not printed in the text (HGEGTYTSNLSKQMEEEAVKLFIEWLKNGGP; Exendin 4 polypeptide fragment)” was tested, and the “insulin secretion of the test group” value (Goto Kokizaki II rats) was “recovered” and the “hypoglycemic activity (in words)” value (diabetic animal models) was “significant hypoglycemic activity”.

In the case of “SEQ ID NO. 66: solid phase Exendin 4 polypeptide variant of example 8; sequence not printed in the text (HGEGTYTSNLSKQIEEEAVKLFIEWLKNGGP; Exendin 4 polypeptide fragment)”, the “insulin secretion of the test group” value (Goto Kokizaki II rats) was “recovered” and the “hypoglycemic activity (in words)” value (diabetic animal models) was “significant hypoglycemic activity”.
